Results: patent US12351574B2, “Selective ligands for modulation of GIRK channels” (Northeastern University, priority 2018, dated 2025)

Experiments:
GIRK1/4 [1] = target: T1, GIRK1/4 (Homo sapiens, UniProt P48544+P48549); experiment: thallium flux assay, cells expressing GIRK1/4; format: cell-based; parameters: expressed in transfected cells
T1 sequence (P48549 1-501): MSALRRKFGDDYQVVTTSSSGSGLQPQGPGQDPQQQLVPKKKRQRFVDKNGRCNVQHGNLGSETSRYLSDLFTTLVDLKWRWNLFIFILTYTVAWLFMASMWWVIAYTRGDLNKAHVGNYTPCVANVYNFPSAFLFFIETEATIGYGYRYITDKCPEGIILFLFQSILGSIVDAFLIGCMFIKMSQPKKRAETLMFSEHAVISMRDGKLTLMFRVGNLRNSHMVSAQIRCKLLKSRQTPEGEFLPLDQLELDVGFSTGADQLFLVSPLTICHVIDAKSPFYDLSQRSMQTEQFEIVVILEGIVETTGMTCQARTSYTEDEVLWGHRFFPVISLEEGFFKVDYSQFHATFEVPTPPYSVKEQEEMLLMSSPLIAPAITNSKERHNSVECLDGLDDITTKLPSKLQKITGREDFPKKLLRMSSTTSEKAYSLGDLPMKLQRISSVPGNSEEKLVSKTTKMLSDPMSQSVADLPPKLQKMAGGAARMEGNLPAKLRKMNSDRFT
T1 sequence (P48544 1-419): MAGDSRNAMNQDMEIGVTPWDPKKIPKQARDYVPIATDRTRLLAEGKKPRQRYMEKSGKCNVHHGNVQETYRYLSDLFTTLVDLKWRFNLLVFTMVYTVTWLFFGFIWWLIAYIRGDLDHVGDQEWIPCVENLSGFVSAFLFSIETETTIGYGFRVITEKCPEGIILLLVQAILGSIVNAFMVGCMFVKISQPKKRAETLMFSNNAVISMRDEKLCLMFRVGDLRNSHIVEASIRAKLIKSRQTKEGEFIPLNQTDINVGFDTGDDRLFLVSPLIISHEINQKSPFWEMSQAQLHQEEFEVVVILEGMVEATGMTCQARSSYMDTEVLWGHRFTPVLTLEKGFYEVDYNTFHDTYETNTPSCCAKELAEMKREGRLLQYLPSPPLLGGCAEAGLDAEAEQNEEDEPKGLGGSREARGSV
From the text: Previous studies have utilized the thallium flux Assay to test the effects of ML297 and related compounds in cells coexpressing GIRK1/2 and GIRK1/4. In order to fully investigate the selective activation of GAT compounds, the inventors also utilized this assay. […] To determine the differences between the thallium flux and TEVC assays, the inventors computationally tested whether the binding of selective compounds could affect the selectivity of the pore area. The Cα RMSF of the region between the M1 and M2 helices of the channel were calculated during the MD simulation with or without ML297 and the selective GAT compounds in the GIRK2/2^FD and GIRK4/4^FD systems (FIGS. 60A-60B). […] To further test this idea, the inventors compared the 10 μM GAT1508-induced thallium and potassium currents in oocytes expressing GIRK1/2 and GIRK1/4 by TEVC recording (FIG. 61B). […] In an effort to enhance the current, the TEVC recording was performed at a holding potential of −100 mV.

GIRK1/4 [2] = target: T1, GIRK1/4; experiment: two-electrode voltage clamp (TEVC) in Xenopus oocytes expressing GIRK1/4 wild-type; format: cell-based; parameters: expressed in transfected cells; host or cells: Xenopus laevis oocytes (cRNA injection)
From the text: Molecular biology: For Xenopus oocyte expression, human GIRK1 and human GIRK4 cDNAs were subcloned into pGEMHE. For mammalian expression, human GIRK1 and human GIRK4 cDNAs were subcloned into pcDNA3 and pcDNA3.1/V5-His B, respectively (Invitrogen). Mouse GIRK2 cDNA was subcloned in the dual-function vector, pXoom. Point mutations were introduced using a standard Pfu-based mutagenesis technique according to the QuikChange protocol (Agilent). Mutations were verified by sequencing.
Xenopus laevis oocyte expression: Plasmid DNAs of GIRK channel subunits were linearized prior to in vitro transcription. Capped RNAs were transcribed using mMESSAGE mMACHINE T7 Transcription Kit (Thermo Fisher Scientific). Xenopus oocytes were surgically extracted, dissociated and defolliculated by collagenase treatment, and microinjected with 50 nl of a water solution containing 1 ng of each GIRK subunit RNA. For TEVC experiments, oocytes were kept 2 days at 17° C. before recording, while for NPo experiments oocytes were incubated for up to 4 days at 17° C.
Xenopus laevis oocyte expression: All cDNA constructs in the pGEMHE vector were linearized using the NheI restriction enzyme, whereas those in the pXoom vector were linearized using the XhoI restriction enzyme. Linearized cDNAs were in vitro-transcribed using the mMessage mMachine® kit (Ambion) kit. Complementary RNA (cRNA) concentrations were quantified by optical density. Xenopus oocytes were surgically extracted, dissociated, and defolliculated by collagenase treatment and microinjected with 50 nl of the desired cRNAs diluted in RNAase-free water. The use of Xenopus laevis frogs for this study was approved by the Institutional Animal Care and Use Committee (IACUC) at Northeastern University. All constructs used in this study were injected to achieve between 1-2 ng per oocyte depending on the channel. Oocytes were incubated for 2 days at 18° C.
Electrophysiology of oocytes: Whole-oocyte currents were measured by conventional two-electrode voltage clamp (TEVC) with a GeneClamp 500 amplifier (Axon Instruments). […] Barium-sensitive currents were normalized to average basal current in the vehicle solutions. The HK solution contained the following: 96 mM KCl, 1 mM NaCl, 1 mM MgCl2, 5 mM KOH/HEPES, pH 7.4. The barium solution consisted of HK+10 mM BaCl2. Five to ten oocytes from the same batch (same frog) were recorded for each group, and the experiments were repeated in at least four batches. Data acquisition and analysis were carried out using pClamp9 (Molecular Devices) and OriginPro (Microcal) software.

SMILES	activation of GIRK1/4 in thallium flux assay (in words) (GIRK1/4 [1]; concentration-response, FIG. 61A)	GAT1508-induced potassium current, GIRK1/4 (in words) (GIRK1/4 [2]; 10 μM, 10 mM K+, holding potential −100 mV)	GAT1508-induced thallium current, GIRK1/4 (in words) (GIRK1/4 [2]; 10 μM, 10 mM thallium, holding potential −100 mV)	EC50 (GIRK1/4 [1]; thallium flux assay) [µM]	compound-induced current normalized to the basal current, GIRK1+GIRK4 (GIRK1/4 [2]; 10 μM, High Potassium (HK) solution, FIG. 31)	EMAX at GIRK1/4, % relative to ML297 (GIRK1/4 [2]; ML297 considered 100%) [%]	EC50 (GIRK1/4 [2]; TEVC, Xenopus oocytes, GIRK1/4 wild-type) [µM]	EMAX at GIRK1/4 (GIRK1/4 [2]; current normalized to basal current)
Cc1cc(NC(=O)Nc2ccc(Br)s2)n(-c2ccccc2)n1 [GAT1508, 1-(5-bromothiophen-2-yl)-3-(3-methyl-1-phenyl-1H-pyrazol-5-yl)urea]	also activated the cardiac heteromer	not	induced current increases					
Cc1cc(NC(=O)Nc2ccc(F)c(F)c2)n(-c2ccccc2)n1 [ML297, reference compound]				~2.89	~1.75	100	0.5 ± 0.26	1.60±0.07
